Organism: Rattus norvegicus
Experiment: DrugMatrix - Regimen: Daily Repeat
Format: toxicity, organism-based, Sprague-Dawley
Design: regimen Daily Repeat, gender Male, age 6-8 weeks
Conditions: in vivo, po, 60 mg/kg, route oral GAVAGE, dose level High, vehicle 100 % WATER; for ABSOLUTE BASOPHIL / ABSOLUTE EOSINOPHIL / ABSOLUTE LYMPHOCYTE / ABSOLUTE MONOCYTE / ABSOLUTE SEGMENTED NEUTROPHIL / BASOPHIL / EOSINOPHIL / ERYTHROCYTE COUNT / HEMATOCRIT / HEMOGLOBIN / LEUKOCYTE COUNT / LYMPHOCYTE / MEAN CORPUSCULAR HEMOGLOBIN / MEAN CORPUSCULAR HEMOGLOBIN CONCENTRATION / MEAN CORPUSCULAR VOLUME / MONOCYTE / NEUTROPHIL / NUCLEATED RED BLOOD CELLS / PLATELET COUNT: tissue Blood
[1] = 72 h, tissue Plasma, time 3 day
[2] = 120 h, tissue Plasma, time 5 day

Nc1ccc(O)c(N)c1 [2,4-DIAMINOPHENOL]
ABSOLUTE BASOPHIL (72 h, time 3 day): 0 CELLS/uL | ABSOLUTE EOSINOPHIL (72 h, time 3 day): 193.67 CELLS/uL | ABSOLUTE LYMPHOCYTE (72 h, time 3 day): 11960 CELLS/uL | ABSOLUTE MONOCYTE (72 h, time 3 day): 874.33 CELLS/uL | ABSOLUTE SEGMENTED NEUTROPHIL (72 h, time 3 day): 1505.33 CELLS/uL | BASOPHIL (72 h, time 3 day): 0% | EOSINOPHIL (72 h, time 3 day): 1.33% | ERYTHROCYTE COUNT (72 h, time 3 day): 5.59 x10E6/uL | HEMATOCRIT (72 h, time 3 day): 34.17% | HEMOGLOBIN (72 h, time 3 day): 12.63 G/DL | LEUKOCYTE COUNT (72 h, time 3 day): 14.53 x10E3/uL | LYMPHOCYTE (72 h, time 3 day): 82.33% | MEAN CORPUSCULAR HEMOGLOBIN (72 h, time 3 day): 22.6 pg | MEAN CORPUSCULAR HEMOGLOBIN CONCENTRATION (72 h, time 3 day): 36.97 G/DL | MEAN CORPUSCULAR VOLUME (72 h, time 3 day): 61.1 fL | MONOCYTE (72 h, time 3 day): 6% | NEUTROPHIL (72 h, time 3 day): 10.33% | NUCLEATED RED BLOOD CELLS (72 h, time 3 day): 0 /100WBC | PLATELET COUNT (72 h, time 3 day): 1050 x10E3/uL | ALANINE AMINOTRANSFERASE [1]: 72 u/L | ALBUMIN [1]: 4.43 G/DL | ALKALINE PHOSPHATASE [1]: 400.67 u/L | ASPARTATE AMINOTRANSFERASE [1]: 94 u/L | BLOOD UREA NITROGEN [1]: 17.67 mg/dL | CARBON DIOXIDE [1]: 23.33 mmol/L | CHLORIDE [1]: 102.67 MEQ/L | CHOLESTEROL [1]: 68 mg/dL | CREATININE [1]: 0.19 mg/dL | GLUCOSE [1]: 165 mg/dL | LACTATE DEHYDROGENASE [1]: 314.67 u/L | LIPASE [1]: 8.33 u/L | PHOSPHORUS [1]: 12.5 mg/dL | POTASSIUM [1]: 6.48 MEQ/L | SODIUM [1]: 144.2 MEQ/L | TOTAL BILIRUBIN [1]: 0.23 mg/dL | TOTAL PROTEIN [1]: 6 G/DL | URIC ACID [1]: 1.63 mg/dL | ABSOLUTE BASOPHIL (120 h, time 5 day): 0 CELLS/uL | ABSOLUTE EOSINOPHIL (120 h, time 5 day): 0 CELLS/uL | ABSOLUTE LYMPHOCYTE (120 h, time 5 day): 5905 CELLS/uL | ABSOLUTE MONOCYTE (120 h, time 5 day): 88.67 CELLS/uL | ABSOLUTE SEGMENTED NEUTROPHIL (120 h, time 5 day): 839.67 CELLS/uL | BASOPHIL (120 h, time 5 day): 0% | EOSINOPHIL (120 h, time 5 day): 0% | ERYTHROCYTE COUNT (120 h, time 5 day): 5.11 x10E6/uL | HEMATOCRIT (120 h, time 5 day): 31.43% | HEMOGLOBIN (120 h, time 5 day): 11.77 G/DL | LEUKOCYTE COUNT (120 h, time 5 day): 6.83 x10E3/uL | LYMPHOCYTE (120 h, time 5 day): 86.33% | MEAN CORPUSCULAR HEMOGLOBIN (120 h, time 5 day): 23.1 pg | MEAN CORPUSCULAR HEMOGLOBIN CONCENTRATION (120 h, time 5 day): 37.43 G/DL | MEAN CORPUSCULAR VOLUME (120 h, time 5 day): 61.57 fL | MONOCYTE (120 h, time 5 day): 1.33% | NEUTROPHIL (120 h, time 5 day): 12.33% | NUCLEATED RED BLOOD CELLS (120 h, time 5 day): 0 /100WBC | PLATELET COUNT (120 h, time 5 day): 990.67 x10E3/uL | ALANINE AMINOTRANSFERASE [2]: 50.33 u/L | ALBUMIN [2]: 4.63 G/DL | ALKALINE PHOSPHATASE [2]: 303.67 u/L | ASPARTATE AMINOTRANSFERASE [2]: 73 u/L | BLOOD UREA NITROGEN [2]: 12.67 mg/dL | CARBON DIOXIDE [2]: 33 mmol/L | CHLORIDE [2]: 99.67 MEQ/L | CHOLESTEROL [2]: 71.67 mg/dL | CREATININE [2]: 0.15 mg/dL | GLUCOSE [2]: 135.33 mg/dL | LACTATE DEHYDROGENASE [2]: 84.67 u/L | LIPASE [2]: 8.67 u/L | PHOSPHORUS [2]: 12.63 mg/dL | POTASSIUM [2]: 6.25 MEQ/L | SODIUM [2]: 146.5 MEQ/L | TOTAL BILIRUBIN [2]: 0.23 mg/dL | TOTAL PROTEIN [2]: 6.5 G/DL
